US10550190B2 (Merck Sharp & Dohme Corp., priority 2014, dated 2020)
Read-outs that look alike come from different tables or passages of the source. Each block holds one compound with its values, some of them ahead of it.

Experiments:
[1] = In vitro stability, rat liver lysosome incubation
[2] = In vitro stability, human whole blood incubation
[3] = Solubility of drug-linkers in 20% MeCN/H2O; conditions: aqueous with cosolvent or surfactant or cyclodextrin
physchem = conditions: aqueous with cosolvent or surfactant or cyclodextrin
[4] = not given; remark: listed apart in the source
[5] = Matrix spiking (time 0 sample, lysosomes pretreated with stopping reagent)

Compound: C[C@@H]1C[C@H]2[C@@H]3CCC4=CC(=O)C=C[C@]4(C)[C@@]3(F)[C@@H](O)C[C@]2(C)[C@@]1(O)C(=O)COP(=O)(O)Oc1ccc(NC(=O)COC2C#CCCCCC2)cc1 (stereo partly drawn) [Compound 5-3, 4-(2-(cyclooct-2-yn-1-yloxy)acetamido)phenyl (2-((8S,9R,10S,11S,13S,14S,16R,17R)-9-fluoro-11,17-dihydroxy-10,13,16-trimethyl-3-oxo-6,7,8,9,10,11,12,13,14,15,16,17-dodecahydro-3H-cyclopenta[a]phenanthren-17-yl)-2-oxoethyl) hydrogen phosphate]
- Calculated Conc. for each compound in rat lysosomal lysate ([1]; 37° C., 0 m): 1394.08 nM
- Calculated Conc. for each compound in rat lysosomal lysate ([1]; 37° C., 5 m): 1295.86 nM
- Calculated Conc. for each compound in rat lysosomal lysate ([1]; 37° C., 10 m): 1278.4 nM
- Calculated Conc. for each compound in rat lysosomal lysate ([1]; 37° C., 15 m): 1407.73 nM
- Calculated Conc. for each compound in rat lysosomal lysate ([1]; 37° C., 30 m): 1175.39 nM
- Calculated Conc. for each compound in rat lysosomal lysate ([1]; 37° C., 1 hr): 970.65 nM
- Calculated Conc. for each compound in rat lysosomal lysate ([1]; 37° C., 2 hr): 743.45 nM
- Calculated Conc. for each compound in rat lysosomal lysate ([1]; 37° C., 3 hr): 500.41 nM
- Calculated Conc. for each compound in rat lysosomal lysate ([1]; 37° C., 6 hr): 221.03 nM
- Calculated Conc. for each compound in rat lysosomal lysate [1, 5]: 2555.29 nM
- Calculated Conc. for each compound in human whole blood ([2]; 37° C., 0 m): 1299 nM
- Calculated Conc. for each compound in human whole blood ([2]; 37° C., 5 m): 1251 nM
- Calculated Conc. for each compound in human whole blood ([2]; 37° C., 15 m): 1276 nM
- Calculated Conc. for each compound in human whole blood ([2]; 37° C., 30 m): 1111 nM
- Calculated Conc. for each compound in human whole blood ([2]; 37° C., 1 hr): 937 nM
- Calculated Conc. for each compound in human whole blood ([2]; 37° C., 2 hr): 1480 nM
- solubility [3]: > 10000 µg/mL

- Calculated Conc. for each compound in rat lysosomal lysate ([1]; 37° C., 0 m): 1456.4 nM
- Calculated Conc. for each compound in rat lysosomal lysate ([1]; 37° C., 5 m): 1851.2 nM
- Calculated Conc. for each compound in rat lysosomal lysate ([1]; 37° C., 10 m): 1640.8 nM
- Calculated Conc. for each compound in rat lysosomal lysate ([1]; 37° C., 15 m): 1666.7 nM
- Calculated Conc. for each compound in rat lysosomal lysate ([1]; 37° C., 30 m): 1602.6 nM
- Calculated Conc. for each compound in rat lysosomal lysate ([1]; 37° C., 1 hr): 1576.8 nM
- Calculated Conc. for each compound in rat lysosomal lysate ([1]; 37° C., 2 hr): 1681.0 nM
- Calculated Conc. for each compound in rat lysosomal lysate ([1]; 37° C., 3 hr): 1689.7 nM
- Calculated Conc. for each compound in rat lysosomal lysate ([1]; 37° C., 6 hr): 1689.8 nM
- Calculated Conc. for each compound in rat lysosomal lysate [1, 5]: 2059.0 nM
- Calculated Conc. for each compound in human whole blood ([2]; 37° C., 0 m): 1687 nM
- Calculated Conc. for each compound in human whole blood ([2]; 37° C., 20 m): 2409 nM
- Calculated Conc. for each compound in human whole blood ([2]; 37° C., 1 hr): 2224 nM
- Calculated Conc. for each compound in human whole blood ([2]; 37° C., 3 hr): 1502 nM
- Calculated Conc. for each compound in human whole blood ([2]; 37° C., 6 hr): 2792 nM
- Calculated Conc. for each compound in human whole blood ([2]; Matrix spiking (time 0 sample, blood pretreated with stopping reagent)): 2939 nM
Compound: C[C@@H]1C[C@H]2[C@@H]3CCC4=CC(=O)C=C[C@]4(C)[C@@]3(F)[C@@H](O)C[C@]2(C)[C@@]1(O)C(=O)CO [Dexamethasone, dexamethasone, reference compound]

Compound: C[C@@H]1C[C@H]2[C@@H]3CCC4=CC(=O)C=C[C@]4(C)[C@@]3(F)[C@@H](O)C[C@]2(C)[C@@]1(O)C(=O)COP(=O)(O)OCCNC(=O)COC1C#CCCCCC1 (stereo partly drawn) [Compound 4-3, 2-(2-(cyclooct-2-yn-1-yloxy)acetamido)ethyl (2-((8S,9R,10S,11S,13S,14S,16R,17R)-9-fluoro-11,17-dihydroxy-10,13,16-trimethyl-3-oxo-6,7,8,9,10,11,12,13,14,15,16,17-dodecahydro-3H-cyclopenta[a]phenanthren-17-yl)-2-oxoethyl) hydrogen phosphate]
- solubility (physchem): > 10000 µg/mL
- Calculated Conc. for dexamethasone in rat lysosomal lysate (0 min): 0.9 nM
- Calculated Conc. for each compound in rat lysosomal lysate (0 min): 888.8 nM
- Calculated Conc. for dexamethasone in rat lysosomal lysate (5 min): 14.5 nM
- Calculated Conc. for each compound in rat lysosomal lysate (5 min): 1156.1 nM
- Calculated Conc. for dexamethasone in rat lysosomal lysate (10 min): 14.2 nM
- Calculated Conc. for each compound in rat lysosomal lysate (10 min): 983.4 nM
- Calculated Conc. for dexamethasone in rat lysosomal lysate (15 min): 22.3 nM
- Calculated Conc. for each compound in rat lysosomal lysate (15 min): 1032.6 nM
- Calculated Conc. for dexamethasone in rat lysosomal lysate (30 min): 28.9 nM
- Calculated Conc. for each compound in rat lysosomal lysate (30 min): 980.1 nM
- Calculated Conc. for dexamethasone in rat lysosomal lysate (1 h): 41.6 nM
- Calculated Conc. for each compound in rat lysosomal lysate (1 h): 882.4 nM
- Calculated Conc. for dexamethasone in rat lysosomal lysate (2 h): 72.5 nM
- Calculated Conc. for each compound in rat lysosomal lysate (2 h): 880.1 nM
- Calculated Conc. for dexamethasone in rat lysosomal lysate (3 h): 90.2 nM
- Calculated Conc. for each compound in rat lysosomal lysate (3 h): 903.8 nM
- Calculated Conc. for dexamethasone in rat lysosomal lysate (6 h): 141.9 nM
- Calculated Conc. for each compound in rat lysosomal lysate (6 h): 858.9 nM
- Calculated Conc. for each compound in human whole blood ([4]; 0 min): 1539 nM
- Calculated Conc. for dexamethasone in human whole blood ([4]; 20 min): 0 nM
- Calculated Conc. for each compound in human whole blood ([4]; 20 min): 1861 nM
- Calculated Conc. for dexamethasone in human whole blood ([4]; 1 h): 0 nM
- Calculated Conc. for each compound in human whole blood ([4]; 1 h): 1619 nM
- Calculated Conc. for dexamethasone in human whole blood ([4]; 3 h): 1 nM
- Calculated Conc. for each compound in human whole blood ([4]; 3 h): 1677 nM
- Calculated Conc. for dexamethasone in human whole blood ([4]; 6 h): 3 nM
- Calculated Conc. for each compound in human whole blood ([4]; 6 h): 2040 nM

Compound: C[C@@H]1C[C@H]2[C@@H]3CCC4=CC(=O)C=C[C@]4(C)[C@@]3(F)[C@@H](O)C[C@]2(C)[C@@]1(O)C(=O)COP(=O)(O)OP(=O)(O)Oc1ccc(NC(=O)COC2C#CCCCCC2)cc1 (stereo partly shown) [Compound 3-4]
- Calculated Conc. for each compound in rat lysosomal lysate ([1]; 37° C., 0 m): 1252 nM
- Calculated Conc. for each compound in rat lysosomal lysate ([1]; 37° C., 5 m): 501.28 nM
- Calculated Conc. for each compound in rat lysosomal lysate ([1]; 37° C., 10 m): 149.18 nM
- Calculated Conc. for each compound in rat lysosomal lysate [1, 5]: 3128.83 nM
- detectability of drug-linker in rat lysosomal extract (in words) ([1]; after 10 minutes incubation): no longer detectable
- Calculated Conc. for each compound in human whole blood ([2]; 37° C., 0 m): 1382 nM
- Calculated Conc. for each compound in human whole blood ([2]; 37° C., 5 m): 1325 nM
- Calculated Conc. for each compound in human whole blood ([2]; 37° C., 15 m): 1398 nM
- Calculated Conc. for each compound in human whole blood ([2]; 37° C., 30 m): 1250 nM
- Calculated Conc. for each compound in human whole blood ([2]; 37° C., 1 hr): 1141 nM
- Calculated Conc. for each compound in human whole blood ([2]; 37° C., 2 hr): 1703 nM
- solubility [3]: > 10000 µg/mL
